In article PMC5218480 (PLoS ONE, 2017):

Test system: MV-4-11 cells
Test: Gene expression microarray analysis (Affymetrix PrimeView) and GSEA
Type: cell-based, human
Design: RFU PODN (11730768_x_at) / Fold change /veh PODN (11730768_x_at) / RFU LINC00158 (11744669_a_at) / Fold change /veh LINC00158 (11744669_a_at) / RFU DUSP10 (11751237_a_at) / Fold change /veh DUSP10 (11751237_a_at) / RFU ID3 (11757404_x_at) / Fold change /veh ID3 (11757404_x_at) / RFU PLEKHG5 (11737974_s_at) / Fold change /veh PLEKHG5 (11737974_s_at) / RFU LRRC4B (11730491_at) / Fold change /veh LRRC4B (11730491_at) / RFU GIMAP4 (11747438_a_at) / Fold change /veh GIMAP4 (11747438_a_at) / RFU KRT8 (11758183_x_at) / Fold change /veh KRT8 (11758183_x_at) / RFU CNN1 (11734310_a_at) / Fold change /veh CNN1 (11734310_a_at) / RFU VPS37D (11726825_at) / Fold change /veh VPS37D (11726825_at) / RFU C10orf10 (11716522_x_at) / Fold change /veh C10orf10 (11716522_x_at) / RFU KIR2DL2 /// KIR2DL4 /// KIR2DL5A /// KIR2DL5B /// KIR2DS1 /// KIR2DS2 /// KIR2DS3 /// KIR2DS4 /// KIR3DL3 /// KIR3DL3 /// KIR3DS1 (11738374_at) / Fold change /veh KIR2DL2 /// KIR2DL4 /// KIR2DL5A /// KIR2DL5B /// KIR2DS1 /// KIR2DS2 /// KIR2DS3 /// KIR2DS4 /// KIR3DL3 /// KIR3DL3 /// KIR3DS1 (11738374_at) / RFU C1QL1 (11718748_at) / Fold change /veh C1QL1 (11718748_at) / RFU TMPRSS4 (11747572_a_at) / Fold change /veh TMPRSS4 (11747572_a_at) / RFU HAMP (11756126_x_at) / Fold change /veh HAMP (11756126_x_at) / RFU RNFT2 (11725882_a_at) / Fold change /veh RNFT2 (11725882_a_at) / RFU NR4A2 (11747474_a_at) / Fold change /veh NR4A2 (11747474_a_at) / RFU ABCC12 (11746883_a_at) / Fold change /veh ABCC12 (11746883_a_at) / RFU TMEM136 (11760407_x_at) / Fold change /veh TMEM136 (11760407_x_at) / RFU CLDN22 /// WWC2 (11732394_at) / Fold change /veh CLDN22 /// WWC2 (11732394_at) / RFU HLA-DPB1 (11760878_x_at) / Fold change /veh HLA-DPB1 (11760878_x_at) / RFU SPINT1 (11716480_a_at) / Fold change /veh SPINT1 (11716480_a_at) / RFU GAP43 (11754022_s_at) / Fold change /veh GAP43 (11754022_s_at) / RFU A4GNT (11735810_at) / Fold change /veh A4GNT (11735810_at) / RFU PRB3 (11715151_x_at) / Fold change /veh PRB3 (11715151_x_at) / RFU TUBB4B (11761932_at) / Fold change /veh TUBB4B (11761932_at) / RFU CAPN14 (11732068_a_at) / Fold change /veh CAPN14 (11732068_a_at) / RFU TMCC2 (11721928_a_at) / Fold change /veh TMCC2 (11721928_a_at) / RFU IRGQ (11745062_a_at) / Fold change /veh IRGQ (11745062_a_at) / RFU FAM174B (11720279_a_at) / Fold change /veh FAM174B (11720279_a_at) / RFU TMPRSS4 (11748680_a_at) / Fold change /veh TMPRSS4 (11748680_a_at) / RFU FAM212B (11763350_a_at) / Fold change /veh FAM212B (11763350_a_at) / RFU PLEKHG5 (11743358_a_at) / Fold change /veh PLEKHG5 (11743358_a_at) / RFU ZSCAN30 (11745921_a_at) / Fold change /veh ZSCAN30 (11745921_a_at) / RFU CMKLR1 (11741424_a_at) / Fold change /veh CMKLR1 (11741424_a_at) / RFU LOC101060620 /// MAPK8IP1 (11723275_at) / Fold change /veh LOC101060620 /// MAPK8IP1 (11723275_at) / RFU SPTSSB (11747773_x_at) / Fold change /veh SPTSSB (11747773_x_at) / RFU PRSS12 (11739890_at) / Fold change /veh PRSS12 (11739890_at) / RFU BIN1 (11741810_x_at) / Fold change /veh BIN1 (11741810_x_at) / RFU WNT11 (11732464_a_at) / Fold change /veh WNT11 (11732464_a_at) / RFU C10orf10 (11716521_a_at) / Fold change /veh C10orf10 (11716521_a_at) / RFU C5orf56 (11738089_at) / Fold change /veh C5orf56 (11738089_at) / RFU CYB561 (11721691_x_at) / Fold change /veh CYB561 (11721691_x_at) / RFU ANKRD19P (11752326_a_at) / Fold change /veh ANKRD19P (11752326_a_at) / RFU OR2T12 /// OR2T33 /// OR2T8 (11738714_s_at) / Fold change /veh OR2T12 /// OR2T33 /// OR2T8 (11738714_s_at) / RFU VCAN (11748164_a_at) / Fold change /veh VCAN (11748164_a_at) / RFU JSRP1 (11732532_at) / Fold change /veh JSRP1 (11732532_at) / RFU KRTAP10-11 (11738290_x_at) / Fold change /veh KRTAP10-11 (11738290_x_at) / RFU MYO3A (11730013_a_at) / Fold change /veh MYO3A (11730013_a_at) / RFU EBF3 (11725865_a_at) / Fold change /veh EBF3 (11725865_a_at) / RFU CAMK2N1 (11719241_x_at) / Fold change /veh CAMK2N1 (11719241_x_at) / RFU C5orf56 (11738088_a_at) / Fold change /veh C5orf56 (11738088_a_at) / RFU OLFML3 (11715873_a_at) / Fold change /veh OLFML3 (11715873_a_at) / RFU LOC100653217 /// NTM (11731650_a_at) / Fold change /veh LOC100653217 /// NTM (11731650_a_at) / RFU MAPK11 (11762145_a_at) / Fold change /veh MAPK11 (11762145_a_at) / RFU FIZ1 (11724087_x_at) / Fold change /veh FIZ1 (11724087_x_at) / RFU OASL (11726364_x_at) / Fold change /veh OASL (11726364_x_at) / RFU SOX15 (11748057_x_at) / Fold change /veh SOX15 (11748057_x_at) / RFU CD79A (11719716_a_at) / Fold change /veh CD79A (11719716_a_at) / RFU HIST1H1D (11736915_at) / Fold change /veh HIST1H1D (11736915_at) / RFU CASKIN2 (11723855_a_at) / Fold change /veh CASKIN2 (11723855_a_at) / RFU LOC730098 (11760151_x_at) / Fold change /veh LOC730098 (11760151_x_at) / RFU OR4N2 (11742367_at) / Fold change /veh OR4N2 (11742367_at) / RFU PRRT2 (11749266_a_at) / Fold change /veh PRRT2 (11749266_a_at) / RFU SNX32 (11753110_a_at) / Fold change /veh SNX32 (11753110_a_at) / RFU CDHR5 (11726645_a_at) / Fold change /veh CDHR5 (11726645_a_at) / RFU RCAN1 (11760418_a_at) / Fold change /veh RCAN1 (11760418_a_at) / RFU FAM167A (11723789_a_at) / Fold change /veh FAM167A (11723789_a_at) / RFU FAM26E (11764081_at) / Fold change /veh FAM26E (11764081_at) / RFU ISYNA1 (11749810_s_at) / Fold change /veh ISYNA1 (11749810_s_at) / RFU ACY1 (11761880_at) / Fold change /veh ACY1 (11761880_at) / RFU 11764098_at / Fold change /veh 11764098_at / RFU SAMD14 (11745864_x_at) / Fold change /veh SAMD14 (11745864_x_at) / RFU NPB (11741838_a_at) / Fold change /veh NPB (11741838_a_at) / RFU TMPRSS6 (11731388_a_at) / Fold change /veh TMPRSS6 (11731388_a_at) / RFU KRTAP10-2 (11738614_at) / Fold change /veh KRTAP10-2 (11738614_at) / RFU ARHGAP8 /// PRR5-ARHGAP8 (11727945_x_at) / Fold change /veh ARHGAP8 /// PRR5-ARHGAP8 (11727945_x_at) / RFU KRTAP5-7 /// NADSYN1 (11734609_at) / Fold change /veh KRTAP5-7 /// NADSYN1 (11734609_at) / RFU RASL12 (11751679_a_at) / Fold change /veh RASL12 (11751679_a_at) / RFU CDKN2B (11736163_a_at) / Fold change /veh CDKN2B (11736163_a_at) / RFU PRF1 (11729649_at) / Fold change /veh PRF1 (11729649_at) / RFU, ZNF638 /// ZNF638-IT1 / Fold change vs veh, ZNF638 /// ZNF638-IT1 / RFU, PANK3 / Fold change vs veh, PANK3 / RFU, SH3YL1 / Fold change vs veh, SH3YL1 / RFU, ZEB2 / Fold change vs veh, ZEB2 / RFU, NRIP1 / Fold change vs veh, NRIP1 / RFU, PTTG1IP / Fold change vs veh, PTTG1IP / RFU, CAPN2 / Fold change vs veh, CAPN2 / RFU, MED14 / Fold change vs veh, MED14 / RFU, SNORA58 / Fold change vs veh, SNORA58 / RFU, C1orf63 / Fold change vs veh, C1orf63 / RFU, LRRFIP1 / Fold change vs veh, LRRFIP1 / RFU, NDUFAF7 / Fold change vs veh, NDUFAF7 / RFU, SLC12A2 / Fold change vs veh, SLC12A2 / RFU, IBTK / Fold change vs veh, IBTK / RFU, ESF1 / Fold change vs veh, ESF1 / Fold change vs veh, TMEM50B / RFU, TAOK1 / Fold change vs veh, TAOK1 / RFU, ACBD3 / Fold change vs veh, ACBD3 / RFU, TMA16 / Fold change vs veh, TMA16 / RFU, RWDD3 / Fold change vs veh, RWDD3 / RFU, BCAT1 / Fold change vs veh, BCAT1 / RFU, EDEM3 / Fold change vs veh, EDEM3 / RFU, TMEM33 / Fold change vs veh, TMEM33 / RFU, WDR75 / Fold change vs veh, WDR75 / RFU, AHCTF1 / Fold change vs veh, AHCTF1 / RFU, TFRC / Fold change vs veh, TFRC / RFU, ZDHHC17 / Fold change vs veh, ZDHHC17 / RFU, NOM1 / Fold change vs veh, NOM1 / RFU, ARL8B / Fold change vs veh, ARL8B / RFU, ZBTB11 / Fold change vs veh, ZBTB11 / RFU, TAMM41 / Fold change vs veh, TAMM41 / RFU, KIAA1704 /// LOC100996395 / Fold change vs veh, KIAA1704 /// LOC100996395 / RFU, ING1 / Fold change vs veh, ING1 / RFU, TRMT61B / Fold change vs veh, TRMT61B / RFU, FUBP3 / Fold change vs veh, FUBP3 / RFU, TP53 / Fold change vs veh, TP53 / RFU, TNKS2 / Fold change vs veh, TNKS2 / RFU, ZFP14 / Fold change vs veh, ZFP14 / RFU, ACTR2 / Fold change vs veh, ACTR2 / RFU, PPP3R1 / Fold change vs veh, PPP3R1 / RFU, PIK3R1 / Fold change vs veh, PIK3R1 / RFU, HNRNPA1 / Fold change vs veh, HNRNPA1 / RFU, RNF170 / Fold change vs veh, RNF170 / RFU, ZNF28 / Fold change vs veh, ZNF28 / RFU, RNGTT / Fold change vs veh, RNGTT / RFU, OGT / Fold change vs veh, OGT / RFU, BRD1 / Fold change vs veh, BRD1 / RFU, MARS / Fold change vs veh, MARS / RFU, ZNF655 / Fold change vs veh, ZNF655 / RFU, FAHD1 / Fold change vs veh, FAHD1 / RFU, BDP1 / Fold change vs veh, BDP1 / RFU, LRRCC1 / Fold change vs veh, LRRCC1 / RFU, ARID1A / Fold change vs veh, ARID1A / RFU, ZNF146 / Fold change vs veh, ZNF146 / RFU, ZNF330 / Fold change vs veh, ZNF330 / RFU, GPN3 / Fold change vs veh, GPN3 / RFU, C9orf123 / Fold change vs veh, C9orf123 / RFU, N4BP2L2 / Fold change vs veh, N4BP2L2 / RFU, ARFIP1 / Fold change vs veh, ARFIP1 / RFU, FAM179B / Fold change vs veh, FAM179B / RFU, BCL10 / Fold change vs veh, BCL10 / RFU, UHRF1BP1L / Fold change vs veh, UHRF1BP1L / RFU, BET1 / Fold change vs veh, BET1 / RFU, CNOT2 / Fold change vs veh, CNOT2 / RFU, ZNF268 / Fold change vs veh, ZNF268 / Fold change vs veh, ZNF507 / RFU, DGCR2 / Fold change vs veh, DGCR2 / RFU, WDSUB1 / Fold change vs veh, WDSUB1 / Fold change vs veh, HSP90B1 /// MIR3652 / RFU, ADSS / Fold change vs veh, ADSS / RFU, GK / Fold change vs veh, GK / RFU, ZNF148 / Fold change vs veh, ZNF148 / RFU, TAF9 / Fold change vs veh, TAF9 / RFU, SLC1A5 / Fold change vs veh, SLC1A5 / RFU, SLMO2 / Fold change vs veh, SLMO2 / RFU, ABCC4 / Fold change vs veh, ABCC4 / RFU, LOC101060439 /// RAP1B / Fold change vs veh, LOC101060439 /// RAP1B / RFU, RFX7 / Fold change vs veh, RFX7 / RFU, GTPBP10 / Fold change vs veh, GTPBP10 / RFU, CNEP1R1 / Fold change vs veh, CNEP1R1 / RFU, BIVM-ERCC5 /// ERCC5 / Fold change vs veh, BIVM-ERCC5 /// ERCC5 / RFU, ILF3 / Fold change vs veh, ILF3 / RFU 11762660_at / Fold change /veh 11762660_at / RFU VCAN (11757783_s_at) / Fold change /veh VCAN (11757783_s_at) / RFU DDX43 (11728927_at) / Fold change /veh DDX43 (11728927_at) / RFU KRT8 (11758188_x_at) / Fold change /veh KRT8 (11758188_x_at) / RFU NKD1 (11759106_at) / Fold change /veh NKD1 (11759106_at) / RFU SRD5A1 (11742802_a_at) / Fold change /veh SRD5A1 (11742802_a_at) / RFU TPSAB1 /// TPSB2 (11721975_s_at) / Fold change /veh TPSAB1 /// TPSB2 (11721975_s_at) / RFU GSTM3 (11746129_a_at) / Fold change /veh GSTM3 (11746129_a_at) / RFU IL23R (11737362_x_at) / Fold change /veh IL23R (11737362_x_at) / RFU TMEM51 (11727254_a_at) / Fold change /veh TMEM51 (11727254_a_at) / RFU PIWIL2 (11732686_x_at) / Fold change /veh PIWIL2 (11732686_x_at) / RFU ORM1 (11744905_x_at) / Fold change /veh ORM1 (11744905_x_at) / RFU CCDC152 (11743942_at) / Fold change /veh CCDC152 (11743942_at) / RFU ECM1 (11717891_a_at) / Fold change /veh ECM1 (11717891_a_at) / RFU IL23R (11748794_a_at) / Fold change /veh IL23R (11748794_a_at) / RFU TNFAIP8L3 (11732012_x_at) / Fold change /veh TNFAIP8L3 (11732012_x_at) / RFU MBOAT4 (11741988_at) / Fold change /veh MBOAT4 (11741988_at) / RFU 11764193_at / Fold change /veh 11764193_at / RFU TMEM53 (11763286_at) / Fold change /veh TMEM53 (11763286_at) / RFU MAGEB2 (11727129_at) / Fold change /veh MAGEB2 (11727129_at) / RFU TMEM200A (11744735_a_at) / Fold change /veh TMEM200A (11744735_a_at) / RFU CCDC152 (11751479_a_at) / Fold change /veh CCDC152 (11751479_a_at) / RFU FAM211A (11726209_a_at) / Fold change /veh FAM211A (11726209_a_at) / RFU RGS16 (11746705_a_at) / Fold change /veh RGS16 (11746705_a_at) / RFU VCAN (11755009_s_at) / Fold change /veh VCAN (11755009_s_at) / RFU RHOB (11743442_s_at) / Fold change /veh RHOB (11743442_s_at) / RFU RGS16 (11720943_a_at) / Fold change /veh RGS16 (11720943_a_at) / RFU RGS16 (11720944_at) / Fold change /veh RGS16 (11720944_at) / RFU, VPS4B / Fold change vs veh, VPS4B / RFU, CREB1 / Fold change vs veh, CREB1 / RFU, DNAJC13 / Fold change vs veh, DNAJC13 / RFU, GNAQ / Fold change vs veh, GNAQ / RFU, CDK5R1 / Fold change vs veh, CDK5R1 / RFU, ZRANB3 / Fold change vs veh, ZRANB3 / RFU, CUL4A / Fold change vs veh, CUL4A / RFU, CCNY / Fold change vs veh, CCNY / RFU, UFL1 / Fold change vs veh, UFL1 / RFU, COG3 / Fold change vs veh, COG3 / RFU, DIAPH2 / Fold change vs veh, DIAPH2 / RFU, SKA2 / Fold change vs veh, SKA2 / RFU, AFF3 / Fold change vs veh, AFF3 / RFU, LMF1 / Fold change vs veh, LMF1 / RFU, IPO11 / Fold change vs veh, IPO11 / RFU, DFFB / Fold change vs veh, DFFB / RFU, FOXP1 / Fold change vs veh, FOXP1 / RFU, CARD8 / Fold change vs veh, CARD8 / RFU, STRN3 / Fold change vs veh, STRN3 / RFU, ADK / Fold change vs veh, ADK / RFU, RASSF2 / Fold change vs veh, RASSF2 / RFU, WIPF1 / Fold change vs veh, WIPF1 / RFU, LARP1B / Fold change vs veh, LARP1B / RFU, RASA1 / Fold change vs veh, RASA1 / RFU, RB1 / Fold change vs veh, RB1 / RFU, PPFIA1 / Fold change vs veh, PPFIA1 / RFU, MAT2A / Fold change vs veh, MAT2A / RFU, CCT5 / Fold change vs veh, CCT5 / RFU, WDR92 / Fold change vs veh, WDR92 / RFU, CUX1 / Fold change vs veh, CUX1 / RFU, TTC7A / Fold change vs veh, TTC7A / RFU, TMEM135 / Fold change vs veh, TMEM135 / RFU, DEPTOR / Fold change vs veh, DEPTOR / RFU, CPM / Fold change vs veh, CPM / RFU, DNAJB6 / Fold change vs veh, DNAJB6 / RFU, CACNA2D3 / Fold change vs veh, CACNA2D3 / RFU, DTX4 / Fold change vs veh, DTX4 / RFU, TFCP2 / Fold change vs veh, TFCP2 / RFU, GMCL1 /// GMCL1P1 / Fold change vs veh, GMCL1 /// GMCL1P1 / RFU, AEBP2 / Fold change vs veh, AEBP2 / RFU, SNHG1 /// SNORD22 /// SNORD25 /// SNORD26 /// SNORD27 /// SNORD28 /// SNORD29 /// SNORD31 / Fold change vs veh, SNHG1 /// SNORD22 /// SNORD25 /// SNORD26 /// SNORD27 /// SNORD28 /// SNORD29 /// SNORD31 / Fold change (Aza/veh), C12orf56 (ProbeSet 11735607_a_at) / Fold change (ACY-1035/veh), C12orf56 (ProbeSet 11735607_a_at) / Fold change (Aza/veh), FGFR1OP (ProbeSet 11751329_s_at) / Fold change (ACY-1035/veh), FGFR1OP (ProbeSet 11751329_s_at) / Fold change (Aza/veh), VPS36 (ProbeSet 11739960_a_at) / Fold change (ACY-1035/veh), VPS36 (ProbeSet 11739960_a_at) / RFU SYPL1 (11715823_x_at) / Fold change /veh SYPL1 (11715823_x_at) / RFU IGFBP7 (11715501_s_at) / Fold change /veh IGFBP7 (11715501_s_at) / RFU REEP3 (11722064_at) / Fold change /veh REEP3 (11722064_at) / RFU IGLL1 (11728026_x_at) / Fold change /veh IGLL1 (11728026_x_at): dose or concentration left out as unconfirmed
Settings: ProbeSet 11729173_a_at; LIST D

## Nc1ncn([C@@H]2O[C@H](CO)[C@@H](O)[C@H]2O)c(=O)n1 [azacitidine]
  RFU, SKA2: 326.42 RFU
